US12037345B2, “Heterobicyclic compounds for inhibiting the activity of SHP2” (TAIHO PHARMACEUTICAL CO., LTD., priority 2018, dated 2024)

Key:
SHP2 = SHP2 (Homo sapiens (Human), UniProt Q06124); test: SHP2 Biochemical Assay (DiFMUP conversion, pIRS1-activated); settings: Table 19; head prints unit as "-M"
Procedure, shortened: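 Rates of DiFMU formation were followed 30 min at ex 360/em 450 nm, with 50 μM DiFMUP, 10 pM SHP2 and pIRS1 peptide ([…]) after 30 min compound pre-incubation at pH 7.0 Bis-Tris propane. Four-parameter logistic IC50s in singlicate; repeat runs averaged.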

[1] = test system: pERK (phospho-p44/42 ERK) in HCC827 cells; test: Cellular pERK Inhibition Assay, Method A (In-Cell Western); format: cell-based; settings: Homo sapiens, Table 19, head prints unit as "-M", read-out: pERK (IC50) Method A
Procedure, shortened: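 In-Cell Western: phospho-p44/42 ERK antibody staining of formalin-fixed HCC827 cells after compound exposure (serum-free medium, 0.2% DMSO, 37 °C, indicated time). Readings minus cell-free blanks were normalised to DMSO-treated wells. Relative IC50 came from four-parameter logistic fits of quadruplicates, given as single or mean values.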

SHP2, sequence (Q06124 whole entry): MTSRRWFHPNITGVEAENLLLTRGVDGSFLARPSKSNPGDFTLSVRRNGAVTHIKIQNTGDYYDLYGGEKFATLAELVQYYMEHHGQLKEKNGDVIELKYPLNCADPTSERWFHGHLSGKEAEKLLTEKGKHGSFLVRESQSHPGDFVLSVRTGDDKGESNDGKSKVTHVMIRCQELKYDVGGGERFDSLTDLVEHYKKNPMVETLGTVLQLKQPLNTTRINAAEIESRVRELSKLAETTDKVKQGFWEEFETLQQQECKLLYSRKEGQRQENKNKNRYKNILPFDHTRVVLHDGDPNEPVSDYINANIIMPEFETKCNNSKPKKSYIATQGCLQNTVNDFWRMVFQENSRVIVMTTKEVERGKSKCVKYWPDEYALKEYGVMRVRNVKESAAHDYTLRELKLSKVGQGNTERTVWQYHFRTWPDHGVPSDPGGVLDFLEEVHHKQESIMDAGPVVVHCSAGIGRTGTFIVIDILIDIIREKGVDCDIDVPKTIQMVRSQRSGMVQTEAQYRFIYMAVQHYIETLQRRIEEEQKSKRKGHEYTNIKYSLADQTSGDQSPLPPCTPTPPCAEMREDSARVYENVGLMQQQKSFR

| SMILES | IC50 (SHP2) [nM] | IC50 [1] [nM] |
| --- | --- | --- |
| CN(C)C(=O)Cn1nc2ccc(-c3c[nH]c4nc(N5C6CCCC5CNC6)n(C)c(=O)c34)c(Cl)c2c1Cl [Example 82, 2-(5-(2-(3,9-diazabicyclo[3.3.1]nonan-9-yl)-3-methyl-4-oxo-4,7-dihydro-3H-pyrrolo[2,3-d]pyrimidin-5-yl)-3,4-dichloro-2H-indazol-2-yl)-N,N-dimethylacetamide] | 14 | 910 |
| CN(C)C(=O)CCn1nc2ccc(-c3c[nH]c4nc(N5C6CCCC5CNC6)n(C)c(=O)c34)c(Cl)c2c1Cl [Example 83, 3-(5-(2-(3,9-diazabicyclo[3.3.1]nonan-9-yl)-3-methyl-4-oxo-4,7-dihydro-3H-pyrrolo[2,3-d]pyrimidin-5-yl)-3,4-dichloro-2H-indazol-2-yl)-N,N-dimethylpropanamide] | 11 | 190 |
| CN(C)C(=O)Cc1nc2ccc(-c3c[nH]c4nc(N5C6CCCC5CNC6)n(C)c(=O)c34)c(Cl)c2s1 [Example 84, 2-(6-(2-(3,9-diazabicyclo[3.3.1]nonan-9-yl)-3-methyl-4-oxo-4,7-dihydro-3H-pyrrolo[2,3-d]pyrimidin-5-yl)-7-chlorobenzo[d]thiazol-2-yl)-N,N-dimethylacetamide] | 18 | 550 |
| Cn1cc2c(Cl)c(-c3c[nH]c4nc(N5C6CNCC5COC6)n(C)c(=O)c34)ccc2n1 [Example 85, 2-(3-oxa-7,9-diazabicyclo[3.3.1]nonan-9-yl)-5-(4-chloro-2-methyl-2H-indazol-5-yl)-3-methyl-3,7-dihydro-4H-pyrrolo[2,3-d]pyrimidin-4-one] | 13 | 640 |
| CN(C)C(=O)Cn1cc2c(Cl)c(-c3c[nH]c4nc(N5C6CCC5CNC6)n(C)c(=O)c34)ccc2n1 [Example 86, 2-(5-(2-(3,8-diazabicyclo[3.2.1]octan-8-yl)-3-methyl-4-oxo-4,7-dihydro-3H-pyrrolo[2,3-d]pyrimidin-5-yl)-4-chloro-2H-indazol-2-yl)-N,N-dimethylacetamide] | 59 | 5200 |
| Cn1nc2ccc(-c3c[nH]c4nc(N5C6CCC5CNC6)n(C)c(=O)c34)c(Cl)c2n1 [Example 87, 2-(3,8-diazabicyclo[3.2.1]octan-8-yl)-5-(4-chloro-2-methyl-2H-benzo[d][1,2,3]triazol-5-yl)-3-methyl-3,7-dihydro-4H-pyrrolo[2,3-d]pyrimidin-4-one] | 68 | 580 |
| CN(C)C(=O)CCn1cc2c(Cl)c(-c3c[nH]c4nc(N5C6CCC5CNC6)n(C)c(=O)c34)ccc2n1 [Example 88, 3-(5-(2-(3,8-diazabicyclo[3.2.1]octan-8-yl)-3-methyl-4-oxo-4,7-dihydro-3H-pyrrolo[2,3-d]pyrimidin-5-yl)-4-chloro-2H-indazol-2-yl)-N,N-dimethylpropanamide] | 52 | 4500 |
| CN(C)C(=O)CCn1nc2ccc(-c3c[nH]c4nc(N5C6CCC5CNC6)n(C)c(=O)c34)c(Cl)c2c1Cl [Example 89, 3-(5-(2-(3,8-diazabicyclo[3.2.1]octan-8-yl)-3-methyl-4-oxo-4,7-dihydro-3H-pyrrolo[2,3-d]pyrimidin-5-yl)-3,4-dichloro-2H-indazol-2-yl)-N,N-dimethylpropanamide] | 14 | 540 |
| Cc1nc2ccc(-c3c[nH]c4nc(N5C6CCC5CNC6)n(C)c(=O)c34)c(Cl)c2s1 [Example 90, 2-(3,8-diazabicyclo[3.2.1]octan-8-yl)-5-(7-chloro-2-methylbenzo[d]thiazol-6-yl)-3-methyl-3,7-dihydro-4H-pyrrolo[2,3-d]pyrimidin-4-one] | 12 | 740 |
| CCn1cc2c(Cl)c(-c3c[nH]c4nc(N5C6CCC5CNC6)n(C)c(=O)c34)ccc2n1 [Example 91, 2-(3,8-diazabicyclo[3.2.1]octan-8-yl)-5-(4-chloro-2-ethyl-2H-indazol-5-yl)-3-methyl-3,7-dihydro-4H-pyrrolo[2,3-d]pyrimidin-4-one] | 12 | 340 |
| Cc1c2c(Cl)c(-c3c[nH]c4nc(N5[C@H]6CC[C@@H]5[C@H](N)C6)n(C)c(=O)c34)ccc2nn1C [Example 94, 2-((1R,2R,4S)-2-amino-7-azabicyclo[2.2.1]heptan-7-yl)-5-(4-chloro-2,3-dimethyl-2H-indazol-5-yl)-3-methyl-3,7-dihydro-4H-pyrrolo[2,3-d]pyrimidin-4-one] | 5 | 72 |
| Cc1nc2ccc(-c3c[nH]c4nc(N5[C@H]6CC[C@@H]5[C@H](N)C6)n(C)c(=O)c34)c(Cl)c2s1 [Example 95, 2-((1R,2R,4S)-2-amino-7-azabicyclo[2.2.1]heptan-7-yl)-5-(7-chloro-2-methylbenzo[d]thiazol-6-yl)-3-methyl-3,7-dihydro-4H-pyrrolo[2,3-d]pyrimidin-4-one] | 2.5 | 68 |
| CN[C@@H]1C[C@@H]2CC[C@H]1N2c1nc2[nH]cc(-c3ccc4nn(C)cc4c3Cl)c2c(=O)n1C [Example 97, 5-(4-chloro-2-methyl-2H-indazol-5-yl)-3-methyl-2-((1R,2R,4S)-2-(methylamino)-7-azabicyclo[2.2.1]heptan-7-yl)-3,7-dihydro-4H-pyrrolo[2,3-d]pyrimidin-4-one] | 7.7 | 82 |
| CCn1cc2c(Cl)c(-c3c[nH]c4nc(N5[C@H]6CC[C@@H]5[C@H](NC)C6)n(C)c(=O)c34)ccc2n1 [Example 98, 5-(4-chloro-2-ethyl-2H-indazol-5-yl)-3-methyl-2-((1R,2R,4S)-2-(methylamino)-7-azabicyclo[2.2.1]heptan-7-yl)-3,7-dihydro-4H-pyrrolo[2,3-d]pyrimidin-4-one] | 10 | 190 |
| Cn1nc2ccc(-c3c[nH]c4nc(N5C6CCCC5CNC6)n(C)c(=O)c34)c(Cl)c2c1Cl [Example 99, 2-(3,9-diazabicyclo[3.3.1]nonan-9-yl)-5-(3,4-dichloro-2-methyl-2H-indazol-5-yl)-3-methyl-3,7-dihydro-4H-pyrrolo[2,3-d]pyrimidin-4-one] | 4.5 | 57 |
| Cn1nc2ccc(-c3c[nH]c4nc(N5C6CCCC5CNC6)n(C)c(=O)c34)c(F)c2c1Cl [Example 100, 2-(3,9-diazabicyclo[3.3.1]nonan-9-yl)-5-(3-chloro-4-fluoro-2-methyl-2H-indazol-5-yl)-3-methyl-3,7-dihydro-4H-pyrrolo[2,3-d]pyrimidin-4-one] | 6 | 95 |
| CCn1nc2ccc(-c3c[nH]c4nc(N5[C@H]6CC[C@@H]5[C@H](N)C6)n(C)c(=O)c34)c(Cl)c2c1OC [Example 102, 2-((1R,2R,4S)-2-amino-7-azabicyclo[2.2.1]heptan-7-yl)-5-(4-chloro-2-ethyl-3-methoxy-2H-indazol-5-yl)-3-methyl-3,7-dihydro-4H-pyrrolo[2,3-d]pyrimidin-4-one] | 9 | 88 |
| Cn1c(N2[C@H]3CC[C@@H]2[C@H](N)C3)nc2[nH]cc(-c3ccc4nn(CF)c(Cl)c4c3Cl)c2c1=O [Example 103, 2-((1R,2R,4S)-2-amino-7-azabicyclo[2.2.1]heptan-7-yl)-5-(3,4-dichloro-2-(fluoromethyl)-2H-indazol-5-yl)-3-methyl-3,7-dihydro-4H-pyrrolo[2,3-d]pyrimidin-4-one] | 2 | 26 |
| CN[C@@H]1C[C@@H]2CC[C@H]1N2c1nc2[nH]cc(-c3ccc4nn(C)c(Cl)c4c3Cl)c2c(=O)n1C [Example 104, 5-(3,4-dichloro-2-methyl-2H-indazol-5-yl)-3-methyl-2-((1R,2R,4S)-2-(methylamino)-7-azabicyclo[2.2.1]heptan-7-yl)-3,7-dihydro-4H-pyrrolo[2,3-d]pyrimidin-4-one] | 2.7 | 84 |
| CN[C@@H]1C[C@@H]2CC[C@H]1N2c1nc2[nH]cc(-c3ccc4ncsc4c3Cl)c2c(=O)n1C [Example 105, 5-(7-chlorobenzo[d]thiazol-6-yl)-3-methyl-2-((1R,2R,4S)-2-(methylamino)-7-azabicyclo[2.2.1]heptan-7-yl)-3,7-dihydro-4H-pyrrolo[2,3-d]pyrimidin-4-one] | 5 | 160 |
| CN[C@@H]1C[C@@H]2CC[C@H]1N2c1nc2[nH]cc(-c3ccc4nn(C)c(Cl)c4c3F)c2c(=O)n1C [Example 106, 5-(3-chloro-4-fluoro-2-methyl-2H-indazol-5-yl)-3-methyl-2-((1R,2R,4S)-2-(methylamino)-7-azabicyclo[2.2.1]heptan-7-yl)-3,7-dihydro-4H-pyrrolo[2,3-d]pyrimidin-4-one] | 5 | 100 |
| CN[C@@H]1C[C@@H]2CC[C@H]1N2c1nc2[nH]cc(-c3ccc4nc(C)sc4c3Cl)c2c(=O)n1C [Example 107, 5-(7-chloro-2-methylbenzo[d]thiazol-6-yl)-3-methyl-2-((1R,2R,4S)-2-(methylamino)-7-azabicyclo[2.2.1]heptan-7-yl)-3,7-dihydro-4H-pyrrolo[2,3-d]pyrimidin-4-one] | 7 | 270 |
| Cn1c(N2C3CCCC2CNC3)nc2[nH]cc(-c3ccc4ncsc4c3Cl)c2c1=O [Example 108, 2-(3,9-diazabicyclo[3.3.1]nonan-9-yl)-5-(7-chlorobenzo[d]thiazol-6-yl)-3-methyl-3,7-dihydro-4H-pyrrolo[2,3-d]pyrimidin-4-one] | 4 | 90 |
| CCn1nc2ccc(-c3c[nH]c4nc(N5[C@H]6CC[C@@H]5[C@H](N)C6)n(C)c(=O)c34)c(Cl)c2c1C(F)F [Example 109, 2-((1R,2R,4S)-2-amino-7-azabicyclo[2.2.1]heptan-7-yl)-5-(4-chloro-3-(difluoromethyl)-2-ethyl-2H-indazol-5-yl)-3-methyl-3,7-dihydro-4H-pyrrolo[2,3-d]pyrimidin-4-one] | 6.5 | 120 |
